Data from patent US20240300933A1, “SALT AND CRYSTAL FORMS OF AN HMOX1 INDUCER” (MITOBRIDGE INC., priority 2021, published 2024).
Converted amounts (≈) assume the structure as drawn.

Key:
[1] = Thermodynamic solubility in water and bio-media (SGF, FaSSIF, FeSSIF) at 37° C.; type: physicochemical; settings: for pH / FC (Form Change) / solubility at 1 h / solubility at 4 h / solubility at 24 h: 37° C.; for pH: filtrate of supernatant; for solubility at 1 h / solubility at 4 h / solubility at 24 h: thermodynamic from solid
Procedure: Specifically, about 40 mg samples (calculated with freebase) were added to 4.0 mL of each buffer. After shaking at 100 rpm at 37° C. for 1/4/24 hour(s), about 1.0 mL of each suspension was centrifuged for 5 minutes. The solids were analyzed by XRPD for crystal form, and the filtrates of supernatants were detected by HPLC for solubility and by pH meter for pH value.

[2] = PK study in Cynomolgus macaques, PO single dose; type: in vivo, Cynomolgus macaques (Macaca fascicularis); settings: for exposure (AUC) compared to the free form, in words: Cynomolgus monkeys, monophosphate; for AUC(0-inf) / AUC(0-t) / Cmax: male, cynomolgus monkey, blood
Procedure: A PK Study of Crystalline form of 1:1 compound (I) Phosphate and compound (I) crystal form was conducted in Cynomolgus macaques (Cynomolgus non-human primates; Macaca fascicularis). […] Blood samples were collected at 0.25, 0.5, 1, 2, 4, 6, 8 and 24 hours, and were analyzed to determine Cmax and exposure (AUC).

[3] = Hygroscopicity by dynamic vapor sorption (DVS); settings: for weight gain: DVS, 25° C., at 90% RH; for hygroscopicity compared with the citrate salt, in words: monophosphate
Procedure: Dynamic vapor sorption (DVS) was performed with an ADVENTURE series DVS at 25° C. under nitrogen blow. Approximately 30 milligrams of material was used.

pKa of the freebase form = type: physicochemical; settings: basic
[4] = simulated gastric fluid, SGF, 1 Hr
[5] = simulated gastric fluid, SGF, 4 Hrs
[6] = simulated gastric fluid, SGF, 24 Hrs
[7] = Cynomolgus macaques, 10 mg/Kg PO single dose
[8] = Cynomolgus macaques, 100 mg/Kg PO single dose

For Cn1c(Nc2nc3ccccc3o2)nc2cc(C(=O)NCCOCCO)ccc21.O=P(O)(O)O [1:1 Compound (I) Phosphate, 2-[(1,3-benzoxazol-2-yl)amino]-N-[2-(2-hydroxyethoxy)ethyl]-1-methyl-1H-benzimidazole-5-carboxamide monophosphate], the “solubility compared to Compound (I), in words” value ([1]; FaSSIF and SGF) was “improved solubility”, the pH ([1]; FaSSIF, 1 Hr) was 2.37 and the “FC (Form Change)” value ([1]; FaSSIF, 1 Hr, solid by XRPD) was “Yes”. For the same compound, the pH ([1]; FaSSIF, 4 Hrs) was 2.37, the pH ([1]; FaSSIF, 24 Hrs) was 2.36 and the pH ([1]; FeSSIF, 1 Hr) was 4.06. The “FC (Form Change)” value ([1]; FeSSIF, 1 Hr, solid by XRPD) was “Yes”, the pH ([1]; FeSSIF, 4 Hrs) was 4.21 and the pH ([1]; FeSSIF, 24 Hrs) was 4.31. For the same compound, the “FC (Form Change)” value ([1]; SGF, 1 Hr) was “Clear”, the pH ([1]; SGF, 1 Hr) was 1.36 and the “FC (Form Change)” value ([1]; SGF, 4 Hrs) was “Clear”. For the same compound, the pH ([1]; SGF, 4 Hrs) was 1.37, the “FC (Form Change)” value ([1]; SGF, 24 Hrs) was “Clear” and the pH ([1]; SGF, 24 Hrs) was 1.41. The solubility at 1 h [1, 4] was over 25900 µg/mL, the solubility at 4 h [1, 5] was over 28400 µg/mL and the solubility at 24 h [1, 6] was over 28400 µg/mL. It also gave a solubility at 1 h ([1]; FaSSIF, 1 Hr) of 190 µg/mL, a solubility at 4 h ([1]; FaSSIF, 4 Hrs) of 180 µg/mL and a solubility at 24 h ([1]; FaSSIF, 24 Hrs) of 70 µg/mL. The solubility at 1 h ([1]; FeSSIF, 1 Hr) was 1400 µg/mL, the solubility at 4 h ([1]; FeSSIF, 4 Hrs) was 770 µg/mL and the solubility at 24 h ([1]; FeSSIF, 24 Hrs) was 390 µg/mL. For the same compound, the solubility at 1 h ([1]; water, 1 Hr) was 4390 µg/mL, the solubility at 4 h ([1]; water, 4 Hrs) was 3230 µg/mL and the solubility at 24 h ([1]; water, 24 Hrs) was 2060 µg/mL. The “solubility compared to the free form, in words” value ([1]; water and bio-relevant media) was “significant solubility improvement”, the pH ([1]; water, 1 Hr) was 2.05 and the “FC (Form Change)” value ([1]; water, 1 Hr, solid by XRPD) was “Yes”. The pH ([1]; water, 4 Hrs) was 2.04, the pH ([1]; water, 24 Hrs) was 1.97 and the “higher exposure compared to free form Compound (I)” value ([2]; Cynomolgus macaques, 10 and 100 mpk oral dose) was 1.5 times. The “Cmax compared to the free form, in words” value ([2]; Cynomolgus macaques, Table 7) was “roughly double”, the “exposure (AUC) compared to the free form, in words” value ([2]; 10 and 100 mpk oral dose, listed as phosphate salt) was “roughly double” and the “exposure (AUC) compared to the free form, in words” value ([2]; 10 and 100 mpk oral dose) was “roughly twice the exposure”. The AUC(0-inf) [2, 7] was 3590 ng·h/mL, the AUC(0-t) [2, 7] was 3480 ng·h/mL and the Cmax [2, 7] was 322 ng/mL. For the same compound, the AUC(0-inf) [2, 8] was 9330 ng·h/mL, the AUC(0-t) [2, 8] was 7580 ng·h/mL and the Cmax [2, 8] was 723 ng/mL. The weight gain [3] was 0.835%, the “hygroscopicity compared with the citrate salt, in words” value ([3]; listed as phosphate salt) was “lower hygroscopicity” and the “hygroscopicity compared with the citrate salt, in words” value [3] was “low hygroscopicity”.
With Cn1c(Nc2nc3ccccc3o2)nc2cc(C(=O)NCCOCCO)ccc21 [Compound (I), 2-[(1,3-benzoxazol-2-yl)amino]-N-[2-(2-hydroxyethoxy)ethyl]-1-methyl-1H-benzimidazole-5-carboxamide] the pKa (pKa of the freebase form) was about 2.75, the pH ([1]; FaSSIF, 1 Hr) was 6.30 and the “FC (Form Change)” value ([1]; FaSSIF, 1 Hr, solid by XRPD) was “No”. For the same compound, the pH ([1]; FaSSIF, 4 Hrs) was 6.35, the “FC (Form Change)” value ([1]; FaSSIF, 4 Hrs, solid by XRPD) was “No” and the pH ([1]; FaSSIF, 24 Hrs) was 5.99. For the same compound, the “FC (Form Change)” value ([1]; FaSSIF, 24 Hrs, solid by XRPD) was “No”, the pH ([1]; FeSSIF, 1 Hr) was 4.78 and the “FC (Form Change)” value ([1]; FeSSIF, 1 Hr, solid by XRPD) was “No”. The pH ([1]; FeSSIF, 4 Hrs) was 4.73, the “FC (Form Change)” value ([1]; FeSSIF, 4 Hrs, solid by XRPD) was “No” and the pH ([1]; FeSSIF, 24 Hrs) was 4.81. For the same compound, the “FC (Form Change)” value ([1]; FeSSIF, 24 Hrs, solid by XRPD) was “No”, the “FC (Form Change)” value ([1]; SGF, 1 Hr) was “No” and the pH ([1]; SGF, 1 Hr) was 2.34. The “FC (Form Change)” value ([1]; SGF, 4 Hrs) was “No”, the pH ([1]; SGF, 4 Hrs) was 2.16 and the “FC (Form Change)” value ([1]; SGF, 24 Hrs) was “No”. For the same compound, the pH ([1]; SGF, 24 Hrs) was 2.51, the solubility at 1 h [1, 4] was 7040 µg/mL (≈ 17.8 mM) and the solubility at 4 h [1, 5] was 6860 µg/mL (≈ 17.3 mM). For the same compound, the solubility at 24 h [1, 6] was 7080 µg/mL (≈ 17.9 mM), the pH ([1]; water, 1 Hr) was 5.69 and the “FC (Form Change)” value ([1]; water, 1 Hr, solid by XRPD) was “No”. For the same compound, the pH ([1]; water, 4 Hrs) was 5.07, the “FC (Form Change)” value ([1]; water, 4 Hrs, solid by XRPD) was “No” and the pH ([1]; water, 24 Hrs) was 5.95. The “FC (Form Change)” value ([1]; water, 24 Hrs, solid by XRPD) was “No”, the AUC(0-inf) [2, 7] was 2030 ng·h/mL and the AUC(0-t) [2, 7] was 1920 ng·h/mL. For the same compound, the Cmax [2, 7] was 164 ng/mL, the AUC(0-inf) [2, 8] was 4740 ng·h/mL and the AUC(0-t) [2, 8] was 4080 ng·h/mL. The Cmax [2, 8] was 350 ng/mL.
Citrate showed a weight gain [3] of 3.223%.
